Measured values as given in patent US20120142771A1, “BIPHENYLACETAMIDE DERIVATIVE” (Dainippon Sumitomo Pharma Co., Ltd., priority 2008, published 2012).

Tests used:
[1] = system: maximum electroshock seizure (MES) model; test: Maximum electroshock seizure (MES) model test; assay type: in vivo, mice; details: for responders at 50 mg/kg / responders at 100 mg/kg: Mus musculus, po, 1 h, read-out: MES (positive number/tested number) (converted); for responders at 100 mg/kg: 100 mg/kg oral
Text: In order to evaluate the antiepileptic activity of each drug, maximum electroshock seizure (MES) model, subcutaneously pentetrazol-injected model (scPTZ), and amygdala kindling model in rats were used because they show a good clinical prediction.
Test 1: Test with Maximum Electroshock Seizure (MES) Model
Test 1 evaluates the anticonvulsant action of medicaments. Animal model used herein represents the clinical phenotypes of generalized tonic seizure and secondarily generalized tonic-clonic seizure. Test compounds (50 or 100 mg/kg) were orally administered to Slc: ddY male mice (3 mice in each group, body weight 20-30 g). After an hour of administration, their corneas were electrically stimulated (60 Hz, 25 mA, 0.2 second) to induce tonic convulsion (tonic extensor in their hind limbs). […] To the control mice, 0.5% tragacanth solution or 0.5% methylcellulose solution was administered.

[2] = system: subcutaneously pentetrazol-injected model (scPTZ); test: Subcutaneously pentetrazol-injected model (scPTZ) test; assay type: in vivo, mice; details: pentetrazol 85 mg/kg s.c. after 1 hour; for responders at 50 mg/kg / responders at 100 mg/kg: Mus musculus, po, 1 h, read-out: scPTZ (positive number/tested number) (converted); for responders at 50 mg/kg / responders at 100 mg/kg / scPTZ (positive number/tested number): Slc: ddY male mice, 3 per group, observed 30 minutes for clonic convulsion
Text: In order to evaluate the antiepileptic activity of each drug, maximum electroshock seizure (MES) model, subcutaneously pentetrazol-injected model (scPTZ), and amygdala kindling model in rats were used because they show a good clinical prediction. […] Test with Subcutaneously Pentetrazol-Injected Model (scPTZ) Similar to Test 1, Test 2 evaluates the anticonvulsant action of medicaments. However, unlike Test 1, animal model used herein represents the clinical phenotypes of generalized absence seizure and myoclonic seizure. Test compounds (50 or 100 mg/kg) were orally administered to Slc: ddY male mice (3 mice in each group, body weight 20-30 g). After an hour, pentetrazol (85 mg/kg) was subcutaneously administered. […] To the control mice, 0.5% tragacanth solution or 0.5% methylcellulose solution was administered.

[3] = 50 mg/kg oral, Slc: ddY male mice, 3 per group, electrical stimulation 1 hour after administration, inhibition of hind limb extension
[4] = Slc: ddY male mice, 3 per group, electrical stimulation 1 hour after administration, inhibition of hind limb extension

Row | Structure (SMILES) | responders at 50 mg/kg [1, 3] [%] | responders at 100 mg/kg [1, 4] [%] | responders at 50 mg/kg ([2]; 50 mg/kg oral) [%] | responders at 100 mg/kg ([2]; 100 mg/kg oral) [%] | scPTZ (positive number/tested number) ([2]; 100 mg/kg oral) | anticonvulsant action in maximum electroshock seizure (MES) model test ([1]; mice, oral 50 or 100 mg/kg, 1 hour after administration) | anticonvulsant action in subcutaneously pentetrazol-injected model (scPTZ) test ([2]; mice, oral 50 or 100 mg/kg) | MES (positive number/tested number) [1, 3] | scPTZ (positive number/tested number) ([2]; 50 mg/kg oral)
1 | NC(=O)Cc1cc(F)ccc1-c1cccc(Cl)c1 [Example 48, 2-(3′-chloro-4-fluorobiphenyl-2-yl)acetamide] | 33.3 | 100 | 33.3 | 100 | – | – | – | – | –
2 | CS(=O)(=O)c1ccc(-c2ccccc2CC(N)=O)cc1 [Example 77] | – | 0 | – | – | 2/3 | – | – | – | –
3 | CNC(=O)Cc1cc(F)ccc1-c1ccccc1F [Example 47, 2-(2′,4-difluorobiphenyl-2-yl)-N-methylacetamide] | 100 | 100 | – | 0 | – | – | – | – | –
4 | NC(=O)C(O)c1ccccc1-c1cc(Cl)ccc1F (stereo not shown) [Example 194, 2-(5′-chloro-2′-fluorobiphenyl-2-yl)-2-hydroxyacetamide] | 33.3 | 100 | 33.3 | 66.7 | – | – | – | – | –
5 | NC(=O)C(O)c1cc(F)ccc1-c1ccccc1 (stereo not shown) [Example 186, 2-(4-fluorobiphenyl-2-yl)-2-hydroxyacetamide] | 100 | 100 | 66.7 | 66.7 | – | anticonvulsant action was observed | anticonvulsant action was observed | – | –
6 | NC(=O)C(F)(F)c1ccccc1-c1cccc(Cl)c1 [Example 171, 2-(3′-chlorobiphenyl-2-yl)-2,2-difluoroacetamide] | 100 | 100 | 33.3 | 100 | – | – | – | – | –
7 | CNC(=O)Cc1ccccc1-c1ccc(F)cc1C(F)(F)F [Example 104] | – | 100 | – | 0 | – | – | – | – | –
8 | CNC(=O)Cc1cc(F)ccc1-c1ccc(F)cc1 [Example 115, 2-(4,4′-difluorobiphenyl-2-yl)-N-methylacetamide] | 100 | 100 | – | 0 | – | – | – | – | –
9 | NC(=O)C(O)c1cc(F)ccc1-c1ccccc1F (stereo not shown) [Example 187] | – | 100 | – | 0 | – | – | – | – | –
10 | NC(=O)Cc1ccccc1-c1cc(F)cc(F)c1 [Example 153, 2-(3′,5′-difluorobiphenyl-2-yl)acetamide] | 0 | 66.7 | 0 | 100 | – | – | – | – | –
11 | CNC(=O)Cc1ccccc1-c1cccc(C)c1 [Example 31, N-methyl-2-(3′-methylbiphenyl-2-yl)-acetamide] | – | 0 | 33.3 | 66.7 | – | – | – | – | –
12 | NC(=O)Cc1ccccc1-c1cc(F)cc(C(F)(F)F)c1 [Example 73, 2-[3′-fluoro-5′-(trifluoromethyl)biphenyl-2-yl]acetamide] | 33.3 | 100 | 0 | 100 | – | – | – | – | –
13 | NC(=O)Cc1cc(OC(F)(F)F)ccc1-c1ccccc1 [Example 34] | – | 0 | 33.3 | 66.7 | – | – | – | – | –
14 | CN(C)C(=O)Cc1ccccc1-c1ccc(C(F)(F)F)cc1 [Example 3, N,N-dimethyl-2-[4′-(trifluoromethyl)biphenyl-2-yl]acetamide] | 100 | 100 | – | 33.3 | – | – | – | – | –
15 | NC(=O)Cc1cc(F)ccc1-c1cccc(F)c1 [Example 133] | – | 100 | – | 33.3 | – | – | – | – | –
16 | COC(C(N)=O)c1ccccc1-c1cccc(F)c1 (stereo not shown) [Example 199] | 33.3 | 100 | – | 33.3 | – | – | – | – | –
17 | NC(=O)Cc1cc(F)ccc1-c1ccc(C(F)(F)F)cc1 [Example 135] | – | 100 | – | 0 | – | – | – | – | –
18 | CNC(=O)Cc1cc(F)ccc1-c1ccc(Cl)cc1 [Example 132] | – | 100 | – | 0 | – | – | – | – | –

Row | Structure (SMILES) | responders at 50 mg/kg [1, 3] [%] | responders at 100 mg/kg [1, 4] [%] | responders at 50 mg/kg ([2]; 50 mg/kg oral) [%] | responders at 100 mg/kg ([2]; 100 mg/kg oral) [%] | scPTZ (positive number/tested number) ([2]; 100 mg/kg oral) | anticonvulsant action in maximum electroshock seizure (MES) model test ([1]; mice, oral 50 or 100 mg/kg, 1 hour after administration) | anticonvulsant action in subcutaneously pentetrazol-injected model (scPTZ) test ([2]; mice, oral 50 or 100 mg/kg) | MES (positive number/tested number) [1, 3] | scPTZ (positive number/tested number) ([2]; 50 mg/kg oral)
19 | CNC(=O)Cc1ccc(Cl)cc1-c1ccccc1 [Example 124, 2-(5-chlorobiphenyl-2-yl)-N-methylacetamide] | 0 | 100 | 0 | 100 | – | – | – | – | –
20 | CNC(=O)Cc1ccccc1-c1ccc(Br)cc1 [Example 53, 2-(4′-Bromobiphenyl-2-yl)-N-methylacetamide] | 66.7 | 100 | – | 0 | – | – | – | – | –
21 | NC(=O)Cc1ccccc1-c1cc(C(F)(F)F)ccc1Cl [Example 96] | – | 33.3 | – | 66.7 | – | – | – | – | –
22 | CNC(=O)Cc1ccc(F)cc1-c1ccccc1 [Example 40] | 33.3 | 100 | – | 0 | – | – | – | – | –
23 | CNC(=O)C(F)c1ccccc1-c1ccccc1 (stereo not shown) [Example 163] | 33.3 | 100 | – | 0 | – | – | – | – | –
24 | CCNC(=O)Cc1ccccc1-c1ccccc1F [Example 29] | 0 | 66.7 | – | 33.3 | – | – | – | – | –
25 | NC(=O)C(F)(F)c1ccccc1-c1cccc(F)c1 [Example 170, 2,2-difluoro-2-(3′-fluorobiphenyl-2-yl)acetamide] | 0 | 100 | 33.3 | 66.7 | – | – | – | – | –
26 | CNC(=O)Cc1c(F)cccc1-c1ccccc1 [Example 119, 2-(3-fluorobiphenyl-2-yl)-N-methylacetamide] | 100 | 100 | – | 0 | – | – | – | – | –
27 | CNC(=O)C1(c2ccccc2-c2ccccc2F)CC1 [Example 157, 1-(2′-fluorobiphenyl-2-yl)-N-methyl-cyclopropane-carboxamide] | 33.3 | 100 | 66.7 | 66.7 | – | – | – | – | –
28 | NC(=O)Cc1ccccc1-c1ccc(C(F)(F)F)cc1Cl [Example 84, 2-[2′-chloro-4′-(trifluoromethyl)biphenyl-2-yl]acetamide] | 0 | 66.7 | 33.3 | 66.7 | – | – | – | – | –
29 | NC(=O)Cc1ccc(C(F)(F)F)cc1-c1ccccc1 [Example 32] | 33.3 | 100 | – | 0 | – | – | – | – | –
30 | NC(=O)C(O)c1ccccc1-c1cc(F)cc(Cl)c1 (stereo not shown) [Example 191, 2-(3′-chloro-5′-fluorobiphenyl-2-yl)-2-hydroxyacetamide] | 100 | 100 | 33.3 | 100 | – | – | – | – | –
31 | CNC(=O)C(OC)c1ccccc1-c1ccccc1F (stereo not shown) [Example 201, 2-(2′-fluorobiphenyl-2-yl)-2-methoxy-N-methylacetamide] | 33.3 | 66.7 | 33.3 | 66.7 | – | – | – | – | –
32 | NC(=O)Cc1ccccc1-c1ccc(F)cc1 [Example 22, 2-(4′-fluorobiphenyl-2-yl)acetamide] | 66.7 | 100 | – | 33.3 | – | – | – | – | –
33 | NC(=O)Cc1ccccc1-c1cccc(C(F)(F)F)c1 [Example 4, 2-[3′-(trifluoromethyl)biphenyl-2-yl]acetamide] | 0 | 66.7 | 0 | 66.7 | – | – | – | – | –
34 | CNC(=O)Cc1ccc(C(F)(F)F)cc1-c1ccccc1 [Example 33] | 33.3 | 66.7 | – | 33.3 | – | – | – | – | –
35 | NC(=O)C(O)c1ccccc1-c1cc(F)cc(Cl)c1 (single isomer, unassigned) [Example 218, 2-(3′-Chloro-5′-fluorobiphenyl-2-yl)-2-hydroxyacetamide] | – | 100 | – | – | 2/3 | – | – | 1/3 | 1/3
36 | CNC(=O)C1(c2ccccc2-c2cccc(F)c2)CC1 [Example 159, 1-(3′-fluorobiphenyl-2-yl)-N-methyl-cyclopropane-carboxamide] | 33.3 | 66.7 | 33.3 | 66.7 | – | – | – | – | –
